Data published in patent US20080207750A1, “Use of N-Chlorotaurine for Treatment of Oozing Tissue Deficiencies” (Pathogenics LLC, priority 2002, published 2008).

Legend:
oozing ear channel = assay: Treatment of the oozing ear channel after tympanoplasty with aqueous 1% NCT solution (case reports); format: in vivo, human; settings: for time until oozing ceased / complete epithelization achieved earlier than by the conventional treatment with fuchsine / incorporation of the temporal fascia: tympanoplasty
From the text: Rinsing the ear channel with NCT solution provokes in general a drying of the ear channel and the tympanoplastic within 1-2 days.
A human patient with a traumatic perforation of the tympanic membrane was provided with a tympanoplasty. After removing incrustations and granulation tissue, the destroyed tympanic membrane was excised and substituted by a fascia temporalis. After taking away the tamponade, the microbiological culture of a swab from the reconstructed tympanic membrane and the ear channel was sterile. Subsequently, the oozing ear channel was treated one time daily for two days by instillation of 2 mL of aqueous 1% NCT solution. […] The complete epithelization was achieved 3 days earlier than by the conventional treatment with fuchsine.
A human patient suffering from a perforation of the tympanic membrane caused by a chronic inflammation of the middle ear received tympanoplasty. After removing incrustations and granulation tissue, the destroyed tympanic membrane was excised and substituted by a fascia temporalis. After taking away the tamponade, the microbiological culture of a swab from the reconstructed tympanic membrane and the ear channel was sterile. Subsequently, the oozing and swollen ear channel was treated one time daily for five days by instillation of 2 mL of aqueous 1% NCT solution. […] The complete epithelization was achieved 3 days earlier than by the conventional treatment with fuchsine.

[1] = tested on: open leg ulcer with fibrous coating; assay: Treatment of open leg ulcer with fibrous coating with wound dressing soaked with aqueous 1% NCT solution; format: in vivo, human; settings: Example 3: person, burn accident; dressing soaked with aqueous 1% NCT two times daily
Description: A human patient suffering from an open leg ulcer with fibrous coating caused by a burn accident was treated two times daily with wound dressing soaked with aqueous 1% NCT solution. […] Microbiological cultures of swabs before and after therapy were sterile.

outer ear canal = assay: Pilot study (open phase IIa): irrigation of the external auditory canal with 1% NCT after tympanoplasty; format: in vivo, human; settings: 12 patients
Description: Procedures: Local irrigations of the external auditory canal with 3 ml of 1% N-chlorotaurine solution were performed once daily until the canal was dry.
(§1) Reagents: Pure NCT as a crystalline sodium salt was dissolved in sterile distilled water to a concentration of 1% (55 mM). Purity was verified by iodometric titration and spectrophotometry. […] Solutions were stored at 2-4° C., where they are stable for 1 year, and allowed to reach room temperature before application to the patients.
Study Design: An open phase IIa study was performed in 12 patients after tympanoplasty. They received a single-shot antibiotic therapy with 2 g Spizef (cefotiam) i.v. perioperatively.
All subjects were treated with 1% N-chlorotaurine.
Subjects: The study population included 6 female and 6 male human patients, ranging in age from 32 to 66 years (median 48,1 years). Inclusion criteria was status post tympanoplasty. Exclusion criteria included topical treatment with other agents, systemic application of antibiotics or corticoids, pregnancy, and simultaneous participation in another study. No patients had to be withdrawn after inclusion.
Treatment and Time Course: After removing the ear-tamponade, which remained in place for 2 to 3 weeks postoperatively, 3 ml of the 1% aqueous NCT solution was applied once daily to the outer ear canal. The endpoint of the treatment was defined as a completely dry canal, corresponding to a clinical score of zero (see below for scoring).
Evaluation and Statistical Analysis: The primary criterion for the judgement of the status of the external meatus was a six-scale clinical score (0-5) based on visual observation via ear microscopy (zero=dry outer ear canal; 5=moist outer ear canal with inflammation).
The second criterion was subjective pain, ascertained by a visual analogue scale.
Clinical examination of the outer ear canal was performed daily for detection of moisture, signs of infection, and judgement of epithelisation of the neo-tympanon.
A completely dry external meatus (score zero) was considered as the endpoint criterion for the termination of the study.
Before and at the end of the study an audiogram was performed in all patients.
Moisture and inflammation of the external auditory canal during and after irrigation with NCT were compared to those before treatment using the Wilcoxon test. P-values<0.05 were considered to indicate statistical significance. Due to the limited number of patients no corrections for multiple comparisons were applied.

[2] = pH of aqueous solutions of NCT; format: physicochemical
Description: as §1

[3] = Storage stability of aqueous NCT solutions; format: physicochemical; settings: 1% (55 mM) aqueous solution stored at 2-4° C.
Description: as §1

[4] = Example 1: person, 2 mL aqueous 1% NCT one time daily for two days
[5] = Example 2: person, 2 mL aqueous 1% NCT one time daily for five days
[6] = 3 ml 1% NCT once daily, score zero = dry outer ear canal

O=S(=O)(O)CCNCl [NCT, N-chlorotaurine]
time until oozing ceased (oozing ear channel; Example 1: person, 2 mL aqueous 1% NCT instilled one time daily for two days): one
complete epithelization achieved earlier than by the conventional treatment with fuchsine (oozing ear channel; [4]): 3 days
incorporation of the temporal fascia (oozing ear channel; [4]): proceeded without problems
time until oozing ceased (oozing ear channel; Example 2: person, 2 mL aqueous 1% NCT instilled one time daily for five days): three
complete epithelization achieved earlier than by the conventional treatment with fuchsine (oozing ear channel; [5]): 3 days
incorporation of the temporal fascia (oozing ear channel; [5]): proceeded without problems
drying of the ear channel and the tympanoplastic (oozing ear channel; rinsing the ear channel with NCT solution, in general): 1 to 2 days
healing process [1]: went on without problems
treatment time until the fibrous coating disappeared [1]: three
dizziness or nystagmus (outer ear canal; 3 ml 1% NCT once daily): No dizziness or nystagmus occurred
drying of the outer ear canal (outer ear canal; 3 ml 1% NCT once daily): Rapid drying of the outer ear canal was detected in all patients
epithelisation of the new tympanon on ear microscopy (outer ear canal; 3 ml 1% NCT once daily): proceeded regularly without granulation
infection in the postoperative course (outer ear canal; 3 ml 1% NCT once daily): No infection occurred
time needed for complete epithelisation (mean±SD) (outer ear canal; 3 ml 1% NCT once daily): 22.6 ± 3.5 days
time needed for complete epithelisation (range) (outer ear canal; 3 ml 1% NCT once daily): 18 to 31 days
tolerability of treatment (outer ear canal; 3 ml 1% NCT once daily): tolerated very well by all patients
average clinical score (0-5) of the outer ear canal (outer ear canal; 3 ml 1% NCT once daily, days 2-5 vs. baseline day 1, Wilcoxon test): decreased daily
necessary time for achieving a score of zero (mean±SD) (outer ear canal; [6]): 2.75 ± 0.87 days
necessary time for achieving a score of zero (range) (outer ear canal; [6]): 2 to 5 days
subjective pain (outer ear canal; 3 ml 1% NCT once daily, visual analogue scale): without occurrence of any pain
damage to the inner ear (outer ear canal; audiogram before and after treatment): no signs of damage to the inner ear
allergic reactions (outer ear canal; whole period of treatment): no signs of allergic reactions
pH [2]: 8
stability of solutions on storage [3]: 1 year
